Laboratory results published in PubChem BioAssay AID256 (DTP/NCI, 2004).
“And” between values parts separate entries of the source, which are not always exact repeats. Identical values can stand only once. Inconclusive results and toxic doses are left out.

System: CD2F1 mice, L1210 leukemia ip, survival T/C
Assay: NCI In Vivo Anticancer Drug Screen. Data for tumor model L1210 Leukemia (intraperitoneal) in CD2F1 (CDF1) mice
Details: higher = longer survival
Summary of the method: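 Antitumor effect is scored in animals hosting a serially transplanted tumor. Values compare compound-dosed animals against vehicle-only controls as a simple quotient.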

[1] = endpoint: mean survival time, dose: 100.0 mg/kg/injection, schedule: Q01DX001 (ip), vehicle: saline with Tween-80
[2] = endpoint: mean survival time, dose: 200.0 mg/kg/injection, schedule: Q01DX001 (ip), vehicle: saline with Tween-80
[3] = endpoint: mean survival time, dose: 400.0 mg/kg/injection, schedule: Q01DX001 (ip), vehicle: saline with Tween-80
[4] = endpoint: mean survival time, dose: 100.0 mg/kg/injection, schedule: Q01DX009 (ip), vehicle: saline with Tween-80
[5] = endpoint: mean survival time, dose: 200.0 mg/kg/injection, schedule: Q01DX009 (ip), vehicle: saline with Tween-80
[6] = endpoint: mean survival time, dose: 400.0 mg/kg/injection, schedule: Q01DX009 (ip), vehicle: saline with Tween-80
[7] = endpoint: mean survival time, dose: 25.0 mg/kg/injection, schedule: Q01DX009 (ip), vehicle: saline with Tween-80
[8] = endpoint: mean survival time, dose: 50.0 mg/kg/injection, schedule: Q01DX009 (ip), vehicle: saline with Tween-80

CN(C)P(=O)(OCCCOCc1ccccc1)N(CCCl)CCCl (centres undefined)
T/C (endpoint: mean survival time, dose: 25.0 mg/kg/injection, schedule: Q01DX001 (ip), vehicle: other): 93 % of control | T/C (endpoint: mean survival time, dose: 50.0 mg/kg/injection, schedule: Q01DX001 (ip), vehicle: other): 101 % of control | T/C (endpoint: mean survival time, dose: 100.0 mg/kg/injection, schedule: Q01DX001 (ip), vehicle: other): 91 % of control | T/C (endpoint: mean survival time, dose: 200.0 mg/kg/injection, schedule: Q01DX001 (ip), vehicle: other): 90 % of control | T/C (endpoint: mean survival time, dose: 400.0 mg/kg/injection, schedule: Q01DX001 (ip), vehicle: other): 87 % of control

CN(C)CCCNC1=C(Cl)C(=O)C(NCCCN(C)C)=C(Cl)C1=O
T/C (endpoint: median survival time, dose: 6.25 mg/kg/injection, schedule: Q01DX009 (ip), vehicle: Klucel (hydroxypropylcellulose) (HPC)): 97 % of control | T/C (endpoint: median survival time, dose: 12.5 mg/kg/injection, schedule: Q01DX009 (ip), vehicle: Klucel (hydroxypropylcellulose) (HPC)): 94 % of control | T/C (endpoint: median survival time, dose: 25.0 mg/kg/injection, schedule: Q01DX009 (ip), vehicle: Klucel (hydroxypropylcellulose) (HPC)): 96 % of control | T/C (endpoint: median survival time, dose: 50.0 mg/kg/injection, schedule: Q01DX009 (ip), vehicle: Klucel (hydroxypropylcellulose) (HPC)): 97 % of control

c1ccc2c(c1)OCC(CN1CCc3[nH]c4ccccc4c3C1)O2 (centres undefined)
T/C (endpoint: mean survival time, dose: 50.0 mg/kg/injection, schedule: Q01DX001 (ip), vehicle: saline with Tween-80): 106 % of control | T/C [1]: 98 % of control | T/C [2]: 93 % of control

CCCCNC(C)(C)C(=O)c1cccs1
T/C (endpoint: mean survival time, dose: 25.0 mg/kg/injection, schedule: Q01DX009 (ip), vehicle: saline): 94 % of control | T/C (endpoint: mean survival time, dose: 50.0 mg/kg/injection, schedule: Q01DX009 (ip), vehicle: saline): 98 % of control | T/C (endpoint: mean survival time, dose: 100.0 mg/kg/injection, schedule: Q01DX009 (ip), vehicle: saline): 100 % of control

OCC1OC(n2cnc3c(SSc4ncnc5c4ncn5C4CC(O)C(CO)O4)ncnc32)CC1O (centres undefined)
T/C (endpoint: mean survival time, dose: 178.0 mg/kg/injection, schedule: Q01DX001 (ip), vehicle: saline): 114 % of control

CC1CC([O-])=N/[N+]1=C\c1ccccc1 (centres undefined)
T/C (endpoint: mean survival time, dose: 100.0 mg/kg/injection, schedule: Q04DX003 (ip), vehicle: saline): 101 % of control | T/C (endpoint: mean survival time, dose: 200.0 mg/kg/injection, schedule: Q04DX003 (ip), vehicle: saline): 96 % of control | T/C (endpoint: mean survival time, dose: 400.0 mg/kg/injection, schedule: Q04DX003 (ip), vehicle: saline): 94 % of control

Nc1ccc(NC(=O)COc2cccc(Cl)c2)cc1
T/C [1]: 90 % of control | T/C [2]: 90 % of control | T/C [3]: 95 % of control

CC(=O)OCC1OC(OC(C)=O)C(On2nnc3c(-c4ccccc4)c(C)nn32)C(OC(C)=O)C1OC(C)=O (centres undefined)
T/C (endpoint: median survival time, dose: 12.5 mg/kg/injection, schedule: Q01DX005 (ip), vehicle: Klucel (hydroxypropylcellulose) (HPC)): 93 % of control | T/C (endpoint: median survival time, dose: 25.0 mg/kg/injection, schedule: Q01DX005 (ip), vehicle: Klucel (hydroxypropylcellulose) (HPC)): 95 % of control | T/C (endpoint: median survival time, dose: 50.0 mg/kg/injection, schedule: Q01DX005 (ip), vehicle: Klucel (hydroxypropylcellulose) (HPC)): 97 % of control | T/C (endpoint: median survival time, dose: 100.0 mg/kg/injection, schedule: Q01DX005 (ip), vehicle: Klucel (hydroxypropylcellulose) (HPC)): 95 % of control

C1CCC(C2CCCC[N-]2)[N-]C1.C1CCC(C2CCCC[N-]2)[N-]C1.[Cl][Ru][Cl] (centres undefined)
T/C (endpoint: mean survival time, dose: 3.13 mg/kg/injection, schedule: Q04DX003 (ip), vehicle: distilled water + Tween-80): 93 % of control | T/C (endpoint: mean survival time, dose: 6.25 mg/kg/injection, schedule: Q04DX003 (ip), vehicle: distilled water + Tween-80): 88 % of control | T/C (endpoint: mean survival time, dose: 12.5 mg/kg/injection, schedule: Q04DX003 (ip), vehicle: distilled water + Tween-80): 92 % of control | T/C (endpoint: mean survival time, dose: 25.0 mg/kg/injection, schedule: Q04DX003 (ip), vehicle: distilled water + Tween-80): 88 % of control | T/C (endpoint: mean survival time, dose: 50.0 mg/kg/injection, schedule: Q04DX003 (ip), vehicle: distilled water + Tween-80): 97 % of control

Clc1ccc(SC=C(Sc2ccc(Cl)cc2)Sc2ccc(Cl)cc2)cc1
T/C (endpoint: mean survival time, dose: 100.0 mg/kg/injection, schedule: Q04DX002 (ip), vehicle: other): 94 % of control | T/C (endpoint: mean survival time, dose: 200.0 mg/kg/injection, schedule: Q04DX002 (ip), vehicle: other): 94 % of control | T/C (endpoint: mean survival time, dose: 400.0 mg/kg/injection, schedule: Q04DX002 (ip), vehicle: other): 87 % of control

COc1ccc(C2C3CN(C4CCCCC4)C(=O)C3NN2C(C)=O)cc1 (centres undefined)
T/C [4]: 91 % of control | T/C [5]: 89 % of control | T/C [6]: 89 % of control

N#CCCc1c(O)ccc2ccccc12
T/C (endpoint: mean survival time, dose: 100.0 mg/kg/injection, schedule: Q04DX003 (ip), vehicle: saline with Tween-80): 86 % of control | T/C (endpoint: mean survival time, dose: 200.0 mg/kg/injection, schedule: Q04DX003 (ip), vehicle: saline with Tween-80): 92 % of control | T/C (endpoint: mean survival time, dose: 400.0 mg/kg/injection, schedule: Q04DX003 (ip), vehicle: saline with Tween-80): 86 % of control

O=C(NCCCl)Nc1cc(Cl)cc(Cl)c1
T/C [7]: 97 % of control | T/C [8]: 100 % of control | T/C [4]: 88 % of control and 96 % of control

[Cl][Hg][Cl]
T/C (endpoint: median survival time, dose: 0.39 mg/kg/injection, schedule: Q01DX009 (ip), vehicle: saline): 101 % of control | T/C (endpoint: median survival time, dose: 0.78 mg/kg/injection, schedule: Q01DX009 (ip), vehicle: saline): 97 % of control | T/C (endpoint: median survival time, dose: 1.56 mg/kg/injection, schedule: Q01DX009 (ip), vehicle: saline): 101 % of control | T/C (endpoint: median survival time, dose: 3.12 mg/kg/injection, schedule: Q01DX009 (ip), vehicle: saline): 92 % of control

Cc1ccc(CCF)cc1
T/C [1]: 107 % of control | T/C [2]: 109 % of control

CCOC(=O)CCCC/C(C)=N\N=C(C(C)C)C(C)C
T/C (endpoint: mean survival time, dose: 75.0 mg/kg/injection, schedule: Q01DX001 (ip), vehicle: other): 103 % of control | T/C (endpoint: mean survival time, dose: 150.0 mg/kg/injection, schedule: Q01DX001 (ip), vehicle: other): 97 % of control | T/C (endpoint: mean survival time, dose: 300.0 mg/kg/injection, schedule: Q01DX001 (ip), vehicle: other): 89 % of control

CCCCOC(=O)Cc1c(C)[nH]c2ccc(-c3ccccc3)cc12
T/C (endpoint: mean survival time, dose: 50.0 mg/kg/injection, schedule: Q04DX002 (ip), vehicle: saline with Tween-80): 102 % of control | T/C (endpoint: mean survival time, dose: 100.0 mg/kg/injection, schedule: Q04DX002 (ip), vehicle: saline with Tween-80): 102 % of control | T/C (endpoint: mean survival time, dose: 200.0 mg/kg/injection, schedule: Q04DX002 (ip), vehicle: saline with Tween-80): 97 % of control

O=C1C(=O)N(CNC(c2ccccc2)c2ccccc2)c2ccccc21
T/C [1]: 101 % of control | T/C [3]: 86 % of control

NC(=O)C1=C(N)CCC1
T/C [4]: 104 % of control | T/C [5]: 104 % of control | T/C [6]: 106 % of control

CCCCCCCN(CCCCCCC)CC(O)c1cc2ccc(Br)cc2c2cccnc12 (centres undefined)
T/C [4]: 95 % of control | T/C [5]: 92 % of control

CNCCN=c1ccc2c3c1c(O)c1c(O)ccc(=O)c1c3[nH]n2CCNCCO
T/C (endpoint: median survival time, dose: 0.37 mg/kg/injection, schedule: Q01DX009 (ip), vehicle: water): 152 % of control and 207 % of control | T/C (endpoint: median survival time, dose: 0.75 mg/kg/injection, schedule: Q01DX009 (ip), vehicle: water): 182 % of control and 195 % of control | T/C (endpoint: median survival time, dose: 1.5 mg/kg/injection, schedule: Q01DX009 (ip), vehicle: water): 154 % of control and 195 % of control | T/C (endpoint: median survival time, dose: 3.0 mg/kg/injection, schedule: Q01DX009 (ip), vehicle: water): 264 % of control and 280 % of control | T/C (endpoint: median survival time, dose: 3.12 mg/kg/injection, schedule: Q01DX009 (ip), vehicle: water): 337 % of control | T/C (endpoint: median survival time, dose: 6.0 mg/kg/injection, schedule: Q01DX009 (ip), vehicle: water): 120 % of control and 103 % of control | T/C (endpoint: median survival time, dose: 6.25 mg/kg/injection, schedule: Q01DX009 (ip), vehicle: water): 120 % of control

NNC(=O)NO
T/C (endpoint: mean survival time, dose: 12.5 mg/kg/injection, schedule: Q01DX009 (ip), vehicle: saline with Tween-80): 166 % of control | T/C [7]: 162 % of control | T/C [8]: 103 % of control | T/C [4]: 97 % of control | T/C [5]: 87 % of control
